# In PubChem BioAssay (NCI):
#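 Compound exposure: 48 hours, 5 concentrations, 96-well plates. The concentration for 50% growth inhibition is given as GI50. TGI is the concentration that stops growth completely.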
# Legend:
# Assay in all cases: DTP human tumour cell line panel, 48 h
# [1] = test system: NCI-H460 lung
# [2] = test system: ACHN renal
# [3] = test system: EKVX NSCLC
# [4] = test system: MCF7 breast
# [5] = test system: LOX IMVI melanoma
# [6] = test system: NCI/ADR-RES ovarian
# [7] = test system: BT-549 breast
# [8] = test system: SK-MEL-5 melanoma
# [9] = test system: SK-OV-3 ovarian
# [10] = test system: MDA-MB-435
# [11] = test system: CAKI-1 renal
# [12] = test system: U251 CNS
# [13] = test system: IGROV1 ovarian
# [14] = test system: K-562 leukemia
# [15] = test system: OVCAR-8 ovarian
# [16] = test system: UACC-62 melanoma
# [17] = test system: CCRF-CEM leukemia
# [18] = test system: SF-268 CNS
# [19] = test system: OVCAR-5 ovarian
# [20] = test system: NCI-H226 lung
# [21] = test system: SW-620 colon
# [22] = test system: HCT-116 colon
# [23] = test system: TK-10 renal
# [24] = test system: NCI-H522 lung
# [25] = test system: SF-295 CNS
# [26] = test system: PC-3 prostate
# [27] = test system: UO-31 renal
# [28] = test system: SK-MEL-2 melanoma
# [29] = test system: COLO 205 colon
# [30] = test system: A498 renal
# [31] = test system: OVCAR-4 ovarian
# [32] = test system: 786-0 renal
# [33] = test system: T-47D breast
# [34] = test system: A549 NSCLC
# [35] = test system: MOLT-4 leukemia
# [36] = test system: SF-539 CNS
# [37] = test system: M14 melanoma
# [38] = test system: SNB-75 CNS
# [39] = test system: UACC-257 melanoma
# [40] = test system: KM12 colon
# [41] = test system: MDA-MB-231 breast
# [42] = test system: SK-MEL-28 melanoma
# [43] = test system: HOP-62 NSCLC
# [44] = test system: DU-145 prostate
# [45] = test system: SNB-19 CNS
# [46] = test system: HCC-2998 colon
# [47] = test system: MALME-3M melanoma
# [48] = test system: RXF 393 renal
# [49] = test system: OVCAR-3 ovarian
# [50] = test system: NCI-H23 lung
# [51] = test system: HT29 colon
# [52] = test system: HCT-15 colon
# [53] = test system: SN12C renal
# [54] = test system: HOP-92 NSCLC
# [55] = test system: HS 578T breast
# [56] = test system: RPMI-8226 leukemia
# [57] = test system: HL-60(TB) leukemia
compound,measurement,setting,value
c1ccc2c(CNCCN3CCNCC3)c3ccccc3c(CNCCN3CCNCC3)c2c1,GI50,[1],25 µM
same,TGI,[1],98.3 µM
same,GI50,[2],31.2 µM
same,TGI,[2],> 100 µM
same,GI50,[3],19.3 µM
same,TGI,[3],61.3 µM
same,GI50,[4],11.5 µM
same,TGI,[4],50.2 µM
same,GI50,[5],12.9 µM
same,TGI,[5],29.5 µM
same,GI50,[6],> 100 µM
same,TGI,[6],> 100 µM
same,GI50,[7],28.3 µM
same,TGI,[7],75.6 µM
same,GI50,[8],15.6 µM
same,TGI,[8],35.2 µM
same,GI50,[9],24.5 µM
same,TGI,[9],79.8 µM
same,GI50,[10],11.7 µM
same,TGI,[10],27.2 µM
same,GI50,[11],> 100 µM
same,TGI,[11],> 100 µM
same,GI50,[12],14.8 µM
same,TGI,[12],40.3 µM
same,GI50,[13],19.8 µM
same,TGI,[13],85.3 µM
same,GI50,[14],10.3 µM
same,TGI,[14],32.7 µM
same,GI50,[15],36.9 µM
same,TGI,[15],> 100 µM
same,GI50,[16],21.1 µM
same,TGI,[16],44 µM
same,GI50,[17],2.3 µM
same,TGI,[17],14.2 µM
same,GI50,[18],12.4 µM
same,TGI,[18],33.3 µM
same,GI50,[19],3.99 µM
same,TGI,[19],17.4 µM
same,GI50,[20],10.3 µM
same,TGI,[20],37.6 µM
same,GI50,[21],16.4 µM
same,TGI,[21],49.3 µM
same,GI50,[22],13.3 µM
same,TGI,[22],29.5 µM
same,GI50,[23],19.7 µM
same,TGI,[23],79.8 µM
same,GI50,[24],13 µM
same,TGI,[24],35.9 µM
same,GI50,[25],17.8 µM
same,TGI,[25],43.5 µM
same,GI50,[26],5.86 µM
same,TGI,[26],20.3 µM
same,GI50,[27],> 100 µM
same,TGI,[27],> 100 µM
same,GI50,[28],29 µM
same,TGI,[28],> 100 µM
same,GI50,[29],13.8 µM
same,TGI,[29],> 100 µM
same,GI50,[30],18.3 µM
same,TGI,[30],60.7 µM
same,GI50,[31],43.8 µM
same,TGI,[31],> 100 µM
same,GI50,[32],2.26 µM
same,TGI,[32],23.4 µM
same,GI50,[33],19.9 µM
same,TGI,[33],81.9 µM
same,GI50,[34],35.1 µM
same,TGI,[34],> 100 µM
same,GI50,[35],3.88 µM
same,TGI,[35],27.5 µM
same,GI50,[36],16.4 µM
same,TGI,[36],37 µM
same,GI50,[37],22.8 µM
same,TGI,[37],60.4 µM
same,GI50,[38],58.4 µM
same,TGI,[38],> 100 µM
same,GI50,[39],62 µM
same,TGI,[39],> 100 µM
same,GI50,[40],10.3 µM
same,TGI,[40],26.8 µM
same,GI50,[41],16 µM
same,TGI,[41],38.6 µM
same,GI50,[42],42.8 µM
same,TGI,[42],> 100 µM
same,GI50,[43],11.9 µM
same,TGI,[43],36.1 µM
same,GI50,[44],7.26 µM
same,TGI,[44],33.2 µM
same,GI50,[45],20.7 µM
same,TGI,[45],> 100 µM
same,GI50,[46],12.7 µM
same,TGI,[46],29.4 µM
same,GI50,[47],11.8 µM
same,TGI,[47],30.2 µM
same,GI50,[48],25.3 µM
same,TGI,[48],81.9 µM
same,GI50,[49],18.9 µM
same,TGI,[49],51.7 µM
same,GI50,[50],16 µM
same,TGI,[50],54.1 µM
same,GI50,[51],29.2 µM
same,TGI,[51],> 100 µM
same,GI50,[52],> 100 µM
same,TGI,[52],> 100 µM
CCN(Cc1ccc(F)cc1)c1ccc(CO)c(C(F)(F)F)c1,GI50,[1],3.43 µM
same,TGI,[1],15.7 µM
same,GI50,[2],14.6 µM
same,TGI,[2],27.8 µM
same,GI50,[4],5.77 µM
same,TGI,[4],19.2 µM
same,GI50,[5],17.5 µM
same,TGI,[5],31.3 µM
same,GI50,[6],13.7 µM
same,TGI,[6],28 µM
same,GI50,[53],12.9 µM
same,TGI,[53],25.5 µM
same,GI50,[7],15.1 µM
same,TGI,[7],28.3 µM
same,GI50,[8],13.9 µM
same,TGI,[8],26.8 µM
same,GI50,[9],15.8 µM
same,TGI,[9],30.8 µM
same,GI50,[10],16 µM
same,TGI,[10],29.4 µM
same,GI50,[11],13.9 µM
same,TGI,[11],28.7 µM
same,GI50,[12],4.1 µM
same,TGI,[12],18.4 µM
same,GI50,[13],1.56 µM
same,TGI,[13],11.6 µM
same,GI50,[14],10.4 µM
same,TGI,[14],52.1 µM
same,GI50,[15],14.3 µM
same,TGI,[15],27.3 µM
same,GI50,[16],1.41 µM
same,TGI,[16],7.33 µM
same,GI50,[17],14.7 µM
same,TGI,[17],43.7 µM
same,GI50,[18],15.5 µM
same,TGI,[18],31.3 µM
same,GI50,[19],1.28 µM
same,TGI,[19],5 µM
same,GI50,[21],11.2 µM
same,TGI,[21],23.5 µM
same,GI50,[22],1.54 µM
same,TGI,[22],12.8 µM
same,GI50,[24],12.5 µM
same,TGI,[24],26.9 µM
same,GI50,[25],3.3 µM
same,TGI,[25],16.5 µM
same,GI50,[26],12.1 µM
same,TGI,[26],25.7 µM
same,GI50,[27],12.5 µM
same,TGI,[27],25 µM
same,GI50,[28],15.1 µM
same,TGI,[28],32.5 µM
same,GI50,[29],14.4 µM
same,TGI,[29],27.5 µM
same,GI50,[30],0.122 µM
same,TGI,[30],0.287 µM
same,GI50,[31],1.79 µM
same,TGI,[31],12.8 µM
same,GI50,[32],12.4 µM
same,TGI,[32],26.2 µM
same,GI50,[33],1.84 µM
same,TGI,[33],10.4 µM
same,GI50,[34],10.9 µM
same,TGI,[34],23.5 µM
same,GI50,[54],2.29 µM
same,TGI,[54],17.8 µM
same,GI50,[55],14.1 µM
same,TGI,[55],40.3 µM
same,GI50,[35],15.2 µM
same,TGI,[35],43.5 µM
same,GI50,[56],11.7 µM
same,TGI,[56],45.2 µM
same,GI50,[36],15.5 µM
same,TGI,[36],28.9 µM
same,GI50,[37],15.1 µM
same,TGI,[37],30.9 µM
same,GI50,[38],14.3 µM
same,TGI,[38],30.6 µM
same,GI50,[39],1.76 µM
same,TGI,[39],7.01 µM
same,GI50,[40],15.2 µM
same,TGI,[40],29.3 µM
same,GI50,[41],14.3 µM
same,TGI,[41],27.3 µM
same,GI50,[42],14.1 µM
same,TGI,[42],27.1 µM
same,GI50,[43],9.23 µM
same,TGI,[43],21.2 µM
same,GI50,[44],16.7 µM
same,TGI,[44],31.8 µM
same,GI50,[45],15.3 µM
same,TGI,[45],28.6 µM
same,GI50,[46],14.9 µM
same,TGI,[46],28.2 µM
same,GI50,[47],15.5 µM
same,TGI,[47],30.3 µM
same,GI50,[57],15.8 µM
same,TGI,[57],41.9 µM
same,GI50,[48],14.9 µM
same,TGI,[48],28.3 µM
same,GI50,[49],6.91 µM
same,TGI,[49],19.6 µM
same,GI50,[50],11.1 µM
same,TGI,[50],24.2 µM
same,GI50,[51],14.3 µM
same,TGI,[51],31.2 µM
same,GI50,[52],14.4 µM
same,TGI,[52],29.4 µM
